Consider two compounds from patent US20140031217A1, “HERBICIDAL COMPOSITIONS COMPRISING 4-AMINO-3-CHLORO-5-FLUORO-6-(4-CHLORO-2-FLUORO-3-METHOXYPHENYL)PYRIDINE-2-CARBOXYLIC ACID OR A DERIVATIVE THEREOF AND AUXIN TRANSPORT INHIBITORS” (DOW AGROSCIENCES LLC, priority 2012, published 2014).

The subject of one assay is ECHCO. The assay can be described thus: Postemergence foliar-applied greenhouse weed control, ECHCO. It counts as in vivo, Echinochloa colona (L.) Link. The source says:
(§1) Seeds or nutlets of the desired test plant species were planted in a soil matrix prepared by mixing a loam or sandy loam soil (e.g., 28.6 percent silt, 18.8 percent clay, and 52.6 percent sand, with a pH of about 5.8 and an organic matter content of about 1.8 percent) and calcareous grit in an 80 to 20 ratio. The soil matrix was contained in plastic pots with a volume of 1 quart and a surface area of 83.6 square centimeters (cm^2). When required to ensure good germination and healthy plants, a fungicide treatment and/or other chemical or physical treatment was applied. The plants were grown for 8-22 days in a greenhouse with an approximate 14 h photoperiod which was maintained at about 29° C. during the day and 26° C. during the night. Nutrients (Peters Excel® 15-5-15 5-Ca 2-Mg and iron chelate) were applied in the irrigation solution as needed and water was added on a regular basis. Supplemental lighting was provided with overhead metal halide 1000-Watt lamps as necessary. The plants were employed for testing when they reached the first through fourth true leaf stage.
(§2) Treatments consisted of the acid or esters of 4-amino-3-chloro-5-fluoro-6-(4-chloro-2-fluoro-3-methoxy-phenyl) pyridine-2-carboxylic acid (Compound A), each formulated as an SC (suspension concentrate), and various herbicidal components alone and in combination. Forms of compound A were applied on an acid equivalent basis.
(§3) Other herbicidal components were applied on an active ingredient basis and included auxin transport inhibiting (ATI) herbicides chlorflurenol (technical material), chlorflurenol-methyl (technical material), diflufenzopyr (technical material), diflufenzopyr sodium (technical material), flurenol-methyl (technical material) and naptalam (technical material).
(§4) Treatment requirements were calculated based upon the rates being tested, the concentration of active ingredient or acid equivalent in the formulation, and a 12 mL application volume at a rate of 187 L/ha.
(§5) For treatments comprised of formulated and technical compounds, weighed amounts of the technical materials were placed individually in 25 mL glass vials and dissolved in a volume of 97:3 v/v acetone/DMSO to obtain 12× stock solutions, and measured amounts of the formulated compounds were placed individually in 25 mL glass vials and diluted in a volume of 1.5% (v/v) crop oil concentrate or water to obtain 12× stock solutions. […] Application solutions were prepared by adding an appropriate amount of each stock solution (e.g., 1 mL) and diluted to the appropriate final concentrations with the addition of an appropriate amount of an aqueous mixture of 1.5% (v/v) crop oil concentrate so that the final spray solutions contained 1.25% (v/v) crop oil concentrate. When required, additional water and/or 97:3 v/v acetone/DMSO was added to individual application solutions so that the final acetone and DMSO concentrations of the application solutions being compared were 8.1% and 0.25%, respectively.
(§6) All stock solutions and applications solutions were visually inspected for compound compatibility prior to application. Spray solutions were applied to the plant material with an overhead Mandel track sprayer equipped with an 8002E nozzle calibrated to deliver 187 L/ha over an application area of 0.503 m^2 at a spray height of 18 to 20 inches (46 to 50 cm) above average plant canopy height. Control plants were sprayed in the same manner with the solvent blank.
(§7) The treated plants and control plants were placed in a greenhouse as described above and watered by sub-irrigation to prevent wash-off of the test compounds. After approximately 3 weeks, the condition of the test plants as compared with that of the untreated plants was determined visually and scored on a scale of 0 to 100 percent where 0 corresponds to no injury or growth inhibition and 100 corresponds to complete kill. […]

In a further assay the test system is DIGSA. The assay can be described thus: Postemergence foliar-applied greenhouse weed control, DIGSA. The assay is classed as in vivo, Digitaria sanguinalis (L.) Scop.
Excerpt: as §1, §2, §3, §4, §5, §6, §7

The subject of the next assay is FIMMI. The assay can be described thus: In-water applied (paddy) greenhouse weed control, FIMMI. Particulars: 19 DAA. It counts as in vivo, Fimbristylis miliacea (L.) Vahl. As for the experimental part: Weed seeds or nutlets of the desired test plant species were planted in puddled soil (mud) prepared by mixing a shredded, non-sterilized mineral soil (50.5 percent silt, 25.5 percent clay, and 24 percent sand, with a pH of about 7.6 and an organic matter content of about 2.9 percent) and water at a 1:1 volumetric ratio. The prepared mud was dispensed in 365 mL aliquots into 16-ounce (oz.) non-perforated plastic pots with a surface area of 86.59 square centimeters (cm^2) leaving a headspace of 3 centimeters (cm) in each pot. Mud was allowed to dry overnight prior to planting or transplanting. Rice seeds were planted in Sun Gro MetroMix® 306 planting mixture, which typically has a pH of 6.0 to 6.8 and an organic matter content of about 30 percent, in plastic plug trays. Seedlings at the second or third leaf stage of growth were transplanted into 840 mL of mud contained in 32-oz. non-perforated plastic pots with a surface area of 86.59 cm^2 4 days prior to herbicide application. The paddy was created by filling the headspace of the pots with 2.5 to 3 cm of water. When required to ensure good germination and healthy plants, a fungicide treatment and/or other chemical or physical treatment was applied. The plants were grown for 4-22 days in a greenhouse with an approximate 14 h photoperiod which was maintained at about 29′C during the day and 26° C. during the night. Nutrients were added as Osmocote® (19:6:12, N:P:K+minor nutrients) at 2 g per 16-oz. pot and 4 g per 960-mL 32-oz. pot. Water was added on a regular basis to maintain the paddy flood, and supplemental lighting was provided with overhead metal halide 1000-Watt lamps as necessary. The plants were employed for testing when they reached the second or third true leaf stage.
Treatments consisted of the acid or esters of 4-amino-3-chloro-5-fluoro-6-(4-chloro-2-fluoro-3-methoxy-phenyl)pyridine-2-carboxylic acid (compound A) each formulated as an SC and various herbicidal components alone and in combination. Forms of compound A were applied on an acid equivalent basis.
Other herbicidal components were applied on an active ingredient basis and included auxin transport inhibiting (ATI) herbicides chlorflurenol-methyl (technical material), chlorflurenol (technical material), diflufenzopyr (technical material), dilfufenzopyr sodium (technical material), flurenol-methyl (technical material,) and naptalam (technical material).
Treatment requirements for each compound or herbicidal component were calculated based upon the rates being tested, the concentration of active ingredient or acid equivalent in the formulation, an application volume of 2 mL per component per pot, and an application area of 86.59 cm^2 per pot.
For formulated compounds, a measured amount was placed in an individual 100 or 200 mL glass vial and was dissolved in a volume of 1.25% (v/v) Agri-Dex® crop oil concentrate to obtain application solutions.
For technical grade compounds, a weighed amount was placed in an individual 100 to 200 mL glass vial and was dissolved in a volume of acetone to obtain concentrated stock solutions. […] The concentrated stock solutions obtained were diluted with an equivalent volume of an aqueous mixture containing 2.5% (v/v) crop oil concentrate so that the final application solutions contained 1.25% (v/v) crop oil concentrate.
Applications were made by injecting with a pipetter appropriate amounts of the application solutions, individually and sequentially, into the aqueous layer of the paddy. Control plants were treated in the same manner with the solvent blank. Applications were made so that all treated plant material received the same concentrations of acetone and crop oil concentrate.
The treated plants and control plants were placed in a greenhouse as described above and water was added as needed to maintain a paddy flood. […]

In the case of `COc1c(Cl)ccc(-c2nc(C(=O)O)c(Cl)c(N)c2F)c1F` [Compound A Acid, 4-amino-3-chloro-6-(4-chloro-2-fluoro-3-methoxyphenyl)-5-fluoropyridine-2-carboxylic acid], the “Visual Weed Control (%) Obs” value is on record as 40% in the assay on ECHCO (20 DAA, 4.38 gae/ha) and 60% in the assay with ECHCO (21 DAA, 4.38 gae/ha).

Take `COc1c(Cl)ccc(-c2nc(C(=O)OCc3ccccc3)c(Cl)c(N)c2F)c1F` [Compound A Benzyl Ester]: the “Visual Weed Control (%) Obs” value amounted to 40% in the assay with DIGSA (20 DAA, 4.38 gae/ha); 40% with DIGSA (20 DAA, 8.75 gae/ha); 30% with DIGSA (21 DAA, 17.5 gae/ha); 60% in the assay on ECHCO (20 DAA, 4.38 gae/ha); 80% in the assay on ECHCO (20 DAA, 8.75 gae/ha); 0% in the assay on FIMMI (8 gae/ha). Also, the figures for the “Visual Weed Control (%) Obs” value in the assay on FIMMI (16 gae/ha) and with FIMMI (32 gae/ha) were 0% and 85%, respectively.
